Data reported in patent publication US11780823B2, “Indazole-3-carboxamides and their use as Wnt/β-catenin signaling pathway inhibitors” (BioSplice Therapeutics, Inc., priority 2011, dated 2023).

Tested on: Wnt activity (wnt-responsive SP5 promoter luciferase reporter in SW480 cells)
Experiment: Wnt reporter screening assay: SP5 promoter-driven firefly luciferase in SW480 cells
Format: cell-based
Conditions: Homo sapiens; SW480 colon cancer cells with SP5 promoter luciferase reporter; half-log dilutions, ten micromolar top concentration; read 24-40 h after compound addition; normalized to DMSO; read-out: Wnt inhibition
Text: Another screening assay for Wnt activity is described as follows. Reporter cell lines can be generated by stably transducing cells of cancer cell lines (e.g., colon cancer) with a lentiviral construct that include a wnt-responsive promoter driving expression of the firefly luciferase gene.
Lentiviral constructs can be made in which the SP5 promoter, a promoter having eight TCF/LEF binding sites derived from the SP5 promoter, is linked upstream of the firefly luciferase gene. The lentiviral constructs can also include a hygromycin resistance gene as a selectable marker. The SP5 promoter construct can be used to transduce SW480 cells, a colon cancer cell line having a mutated APC gene that generates a truncated APC protein, leading to de-regulated accumulation of β-catenin.
Cultured SW480 cells bearing a reporter construct can be distributed at approximately 10,000 cells per well into 96 well or 384 well plates. Compounds from a small molecule compound library can then be added to the wells in half-log dilutions using a ten micromolar top concentration. A series of control wells for each cell type receive only buffer and compound solvent. Twenty-four to forty hours after the addition of compound, reporter activity for luciferase can be assayed, for example, by addition of the BrightGlo luminescence reagent (Promega) and the Victor3 plate reader (Perkin Elmer). Readings can be normalized to DMSO only treated cells, and normalized activities can then be used in the IC50 calculations.

SMILES	IC50
CN(C)Cc1cncc(-c2ccc3[nH]nc(C(=O)Nc4ccc(C(F)(F)F)nc4)c3c2)c1 [Compound 26, 5-(5-((Dimethylamino)methyl)pyridin-3-yl)-N-(6-(trifluoromethyl)pyridin-3-yl)-1H-indazole-3-carboxamide]	210 nM
CN1CCN(C(=O)c2n[nH]c3ccc(-c4cncc(CN5CCCCC5)c4)cc23)CC1 [Compound 83, (4-Methylpiperazin-1-yl)(5-(5-(piperidin-1-ylmethyl)pyridin-3-yl)-1H-indazol-3-yl)methanone]	2500 to 3400 nM
CCOc1ccc(NC(=O)c2n[nH]c3ccc(-c4cncc(CN5CCCC5)c4)cc23)cn1 [Compound 44, N-(6-Ethoxypyridin-3-yl)-5-(5-(pyrrolidin-1-ylmethyl)pyridin-3-yl)-1H-indazole-3-carboxamide]	158 nM
O=C(Nc1cccnc1)c1n[nH]c2ccc(-c3cccnc3)cc12 [Compound 4, N,5-di(pyridin-3-yl)-1H-indazole-3-carboxamide]	160 nM
O=C(Nc1cccnc1)c1n[nH]c2ccc(-c3cncc(Cc4ccccc4)c3)cc12 [Compound 55, 5-(5-Benzylpyridin-3-yl)-N-(pyridin-3-yl)-1H-indazole-3-carboxamide]	44 nM
O=C(Nc1cccnc1)c1n[nH]c2ccc(-c3cncc(NC(=O)C4CC4)c3)cc12 [Compound 41, 5-(5-(Cyclopropanecarboxamido)pyridin-3-yl)-N-(pyridin-3-yl)-1H-indazole-3-carboxamide]	67 nM
O=C(Nc1ccc(N2CCCCC2)nc1)c1n[nH]c2ccc(-c3cncc(CN4CCCCC4)c3)cc12 [Compound 126, N-(6-(Piperidin-1-yl)pyridin-3-yl)-5-(5-(piperidin-1-ylmethyl)pyridin-3-yl)-1H-indazole-3-carboxamide]	22 nM
O=C(Nc1ccc(N2CCOCC2)nc1)c1n[nH]c2ccc(-c3cncc(CN4CCCCC4)c3)cc12 [Compound 69, N-(6-Morpholinopyridin-3-yl)-5-(5-(piperidin-1-ylmethyl)pyridin-3-yl)-1H-indazole-3-carboxamide]	50 nM
O=C(Nc1ccc(N2CCCC2)nc1)c1n[nH]c2ccc(-c3cncc(N4CCOCC4)c3)cc12 [Compound 187, 5-(5-Morpholinopyridin-3-yl)-N-(6-(pyrrolidin-1-yl)pyridin-3-yl)-1H-indazole-3-carboxamide]	215 nM
CS(=O)(=O)c1ccc(NC(=O)c2n[nH]c3ccc(-c4cncc(CN5CCCCC5)c4)cc23)cn1 [Compound 185, N-(6-(Methylsulfonyl)pyridin-3-yl)-5-(5-(piperidin-1-ylmethyl)pyridin-3-yl)-1H-indazole-3-carboxamide]	27 nM
O=C(Nc1ccc(Oc2cccc(F)c2)nc1)c1n[nH]c2ccc(-c3cccnc3)cc12 [Compound 19, N-(6-(3-Fluorophenoxy)pyridin-3-yl)-5-(pyridin-3-yl)-1H-indazole-3-carboxamide]	107 nM
O=C(Nc1ccc(CN2CCCC2)nc1)c1n[nH]c2ccc(-c3cccnc3)cc12 [Compound 8, 5-(Pyridin-3-yl)-N-(6-(pyrrolidin-1-ylmethyl)pyridin-3-yl)-1H-indazole-3-carboxamide]	130 nM
CN1CCN(c2cncc(-c3ccc4[nH]nc(C(=O)Nc5ccc(N6CCCC6)nc5)c4c3)c2)CC1 [Compound 186, 5-(5-(4-Methylpiperazin-1-yl)pyridin-3-yl)-N-(6-(pyrrolidin-1-yl)pyridin-3-yl)-1H-indazole-3-carboxamide]	460 nM
O=C(NC1CCOCC1)c1n[nH]c2ccc(-c3cncc(CN4CCCCC4)c3)cc12 [Compound 163, 5-(5-(Piperidin-1-ylmethyl)pyridin-3-yl)-N-(tetrahydro-2H-pyran-4-yl)-1H-indazole-3-carboxamide]	15400 nM
O=C(Nc1cnccc1C(F)(F)F)c1n[nH]c2ccc(-c3cccnc3)cc12 [Compound 48, 5-(Pyridin-3-yl)-N-(4-(trifluoromethyl)pyridin-3-yl)-1H-indazole-3-carboxamide]	≥ 10000 nM
Nc1cncc(-c2ccc3[nH]nc(C(=O)Nc4ccc(N5CCCCC5)nc4)c3c2)c1 [Compound 182, 5-(5-Aminopyridin-3-yl)-N-(6-(piperidin-1-yl)pyridin-3-yl)-1H-indazole-3-carboxamide]	35 nM
N#Cc1cncc(-c2ccc3[nH]nc(C(=O)Nc4cccnc4)c3c2)c1 [Compound 66, 5-(5-Cyanopyridin-3-yl)-N-(pyridin-3-yl)-1H-indazole-3-carboxamide]	≥ 10000 nM
CN1CCN(Cc2ccc(NC(=O)c3n[nH]c4ccc(-c5cccnc5)cc34)cn2)CC1 [Compound 15, N-(6-((4-Methylpiperazin-1-yl)methyl)pyridin-3-yl)-5-(pyridin-3-yl)-1H-indazole-3-carboxamide]	37 nM
O=C(Nc1ccc(-c2ccccc2)nc1)c1n[nH]c2ccc(-c3cncc(CN4CCCCC4)c3)cc12 [Compound 65, N-(6-Phenylpyridin-3-yl)-5-(5-(piperidin-1-ylmethyl)pyridin-3-yl)-1H-indazole-3-carboxamide]	101 nM
N#Cc1ccc(NC(=O)c2n[nH]c3ccc(-c4cncc(CN5CCCCC5)c4)cc23)cn1 [Compound 62, N-(6-cyanopyridin-3-yl)-5-(5-(piperidin-1-ylmethyl)pyridin-3-yl)-1H-indazole-3-carboxamide]	16 nM
O=C(Nc1cnccc1C(F)(F)F)c1n[nH]c2ccc(-c3cncc(CN4CCCCC4)c3)cc12 [Compound 47, 5-(5-(Piperidin-1-ylmethyl)pyridin-3-yl)-N-(4-(trifluoromethyl)pyridin-3-yl)-1H-indazole-3-carboxamide]	71 nM
CCOc1ccc(NC(=O)c2n[nH]c3ccc(-c4cncc(CN5CCCCC5)c4)cc23)cn1 [Compound 45, N-(6-Ethoxypyridin-3-yl)-5-(5-(piperidin-1-ylmethyl)pyridin-3-yl)-1H-indazole-3-carboxamide]	110 nM
O=C(Nc1ccc(C(F)(F)F)nc1)c1n[nH]c2ccc(-c3cncc(CN4CCOCC4)c3)cc12 [Compound 68, 5-(5-(Morpholinomethyl)pyridin-3-yl)-N-(6-(trifluoromethyl)pyridin-3-yl)-1H-indazole-3-carboxamide]	48 nM
CN1CCN(Cc2cncc(NC(=O)c3n[nH]c4ccc(-c5cncc(CN6CCCCC6)c5)cc34)c2)CC1 [Compound 124, N-(5-((4-Methylpiperazin-1-yl)methyl)pyridin-3-yl)-5-(5-(piperidin-1-ylmethyl)pyridin-3-yl)-1H-indazole-3-carboxamide]	67 nM
CN1CCN(c2ccc(NC(=O)c3n[nH]c4ccc(-c5cncc(CN6CCCCC6)c5)cc34)cn2)CC1 [Compound 70, N-(6-(4-Methylpiperazin-1-yl)pyridin-3-yl)-5-(5-(piperidin-1-ylmethyl)pyridin-3-yl)-1H-indazole-3-carboxamide]	41 nM
O=C(Nc1ccc(Oc2ccccc2F)nc1)c1n[nH]c2ccc(-c3cccnc3)cc12 [Compound 18, N-(6-(2-fluorophenoxy)pyridin-3-yl)-5-(pyridin-3-yl)-1H-indazole-3-carboxamide]	122 nM
O=C(Nc1ccc(-c2ccc(F)cc2)nc1)c1n[nH]c2ccc(-c3cncc(CN4CCCCC4)c3)cc12 [Compound 73, N-(6-(4-Fluorophenyl)pyridin-3-yl)-5-(5-(piperidin-1-ylmethyl)pyridin-3-yl)-1H-indazole-3-carboxamide]	322 nM
